Series [1] has as its system cucumber gray mold (Botrytis cinerea). Kind of series: Test Example 9: cucumber gray mold, single and combined fungicides (Table 6). The settings on record: for Lesion area ratio (%) / Protection value: young cucumber (Yotsuba).
Protocol: (§1) The protection value was calculated by means of the equation as follows. protection value=(1−(lesion area in the division treated with fungicide)/lesion area in the division not treated with fungicide))×100
(§2) An estimated protection value of a mixture of active ingredients was calculated according to the Colby's formula [R. S. Colby, Weeds 15, 20-22 (1967)] and compared with the experimental protection value.
[wherein, E is the estimated protection value (additive effect) which will be obtained when the active ingredients A and B are used in a mixture in concentrations a and b, respectively x is the protection value obtained when the active igredient A is used in a concentration a, and y is the protection value obtained when the active ingredient B is used in a concentration b. […] A protection value equal 0 means that the lesion area ratio of the plants in the test group is as large as that of the plants in the untreated control group. A protection value equals 100 means that the plants in the test group are free from the disease.
The test compound (denoted by the compound No. in Table 1 above), azoxystrobin, mepanipyrim and iprodione, individually or in combination, were dissolved in dimethylformamide (final concentration was 1 wt %). Xylene (final concentration was 0.02 wt %) and Tween 20 (Trade Name) (final concentration was 0.02 wt %) were added to the solution. The resulting mixture was diluted with water to give a test solution which contained a given concentration (ppm) of the active ingredient. A spreader adjuvant SINDAIN (Trade Name, Manufactured by Takeda Chemical Industries, Ltd, and comprises 20 wt % of polyoxyethylene nonylphenyl ether and 12 wt % of calcium ligninsulfonate) was added to this solution in the final concentration of 0.05 wt % to give a spray agent.
The spray agent was sprayed in an amount of 10 ml/pot on young cucumber (cultural variety: Yotsuba) cultivated for 3 to 4 weeks in a greenhouse. After drying up in a room, the treated cucumbers were inoculated with pathogenic fangi on the leaves by placing the mycelial disks which were cut out from a PSA medium grown with Botrytis cinerea and then kept in a greenhouse at 28° C. for 3 days. Then, the ratio of the lesion area on the plants treated with the test compound and that on the plants treated with another substances to that on untreated plants was investigated.
The subject of series [2] is rice blast (Pyricularia oryzae). Type of series: in vivo. Conditions: for Lesion area ratio (%) / Protection value: rice plants.
Series [3] concerns apple Alternaria leaf blotch (Alternaria mali). The series is described as follows: Test Example 5: apple Alternaria leaf blotch, single and combined fungicides (Table 2). Type of series: in vivo. Conditions: for Lesion area ratio (%) / Protection value: apple seedlings; for protection effect in combination compared with estimated protection effect (synergy): in combination with chlorothalonil, hexaconazole and azoxystrobin.

The test system is the same in series [4]. The series is described as follows: Test Example 6: apple Alternaria leaf blotch, single and combined fungicides (Table 3). Conditions: for Lesion area ratio (%) / Protection value: apple leaves; for protection effect in combination compared with estimated protection effect (synergy): in combination with mepanipyrim (No. 289) and iminoctadine (No. 97), respectively.
Protocol: as §1, §2
[wherein, E is the estimated protection value (additive effect) which will be obtained when the active ingredients A and B are used in a mixture in concentrations a and b, respectively x is the protection value obtained when the active igredient A is used in a concentration a, and y is the protection value obtained when the active ingredient B is used in a concentration b.

In series [5] the test system is rice Helminthosporium leaf spot (Cochliobolus miyabeanus). Kind of series: Test Example 8: rice Helminthosporium leaf spot, single and combined fungicides (Table 5). In kind it is in vivo. The settings on record: for Lesion area ratio (%) / Protection value: young rice plants.

Where two headings read alike, the source gives them in different places.

We go through 13 compounds from US6586617B1, “Sulfonamide derivatives” (Sumitomo Chemical Takeda Agro Company, Limited, priority 1999, dated 2003).

As for `CO/C=C(/C(=O)OC)c1ccccc1Oc1cc(Oc2ccccc2C#N)ncn1` [Azoxystrobin, azoxystrobin, reference compound], the “Lesion area ratio (%)” value was 3.9% in series [1] (10 ppm active ingredient); 11.0% in series [2] (0.1 ppm active ingredient); 5.0% in series [2] (0.5 ppm active ingredient); 25.8% in series [3] (6.3 ppm active ingredient); 25.0% in series [3] (25 ppm active ingredient). Besides, the Protection value in series [1] (10 ppm active ingredient) came out at 69.8; in series [2] (0.1 ppm active ingredient), 56; in series [2] (0.5 ppm active ingredient), 80; in series [3] (6.3 ppm active ingredient) it was 56; in series [3] (25 ppm active ingredient), 58.

Take `N#Cc1c(Cl)c(Cl)c(Cl)c(C#N)c1Cl` [Chlorothalonil, chlorothalonil, reference compound]: the “Lesion area ratio (%)” value is recorded as 43.5% in series [3] (6.3 ppm active ingredient), 60.0% in series [3] (25 ppm active ingredient) and 16.8% in series [3] (100 ppm active ingredient). For the same compound, the Protection value worked out at 27 in series [3] (6.3 ppm active ingredient), 0 in series [3] (25 ppm active ingredient) and 72 in series [3] (100 ppm active ingredient).

By melting point is commonly meant the temperature of the solid-liquid transition. `Cc1ccc(S(=O)(=O)N(C)c2ccccc2[N+](=O)[O-])cc1` [Compound No. 38, N-Methyl-2′-nitro-p-toluenesulfonanilide]: the melting point fell in the range of 131.5 to 132.5 °C.

For `Cc1ccc(S(=O)(=O)N(c2ccc(Cl)cc2C#N)C(C)C)cc1` [Compound No. 97, 4′-Chloro-2′-cyano-N-isopropyl-p-toluenesulfonanilide], the “Lesion area ratio (%)” value in series [4] (0.4 ppm active ingredient) is 25.0%; in series [4] (1.6 ppm active ingredient), 19.2%; in series [4] (6.3 ppm active ingredient), 8.0%. Also, the Protection value is reported as 65 in series [4] (0.4 ppm active ingredient), 73 in series [4] (1.6 ppm active ingredient) and 89 in series [4] (6.3 ppm active ingredient). For the same compound, the “protection effect in combination compared with estimated protection effect (synergy)” value in series [4] is “higher protection effect”.

The compound `CCN(c1ccc(SC)cc1[N+](=O)[O-])S(=O)(=O)c1ccc(C)cc1` [Compound No. 227, N-Ethyl-4′-methylthio-2′-nitro-p-toluenesulfonanilide] gave a melting point of 135 to 136 °C.

`CCN(c1ccc(Cl)cc1[N+](=O)[O-])S(=O)(=O)c1ccc(C)cc1` [Compound No. 289, 4′-Chloro-N-ethyl-2′-nitro-p-toluenesulfonanilide]: the “Lesion area ratio (%)” value was determined as 5.0% in series [5] (25 ppm active ingredient); 4.5% in series [5] (100 ppm active ingredient); 13.2% in series [1] (100 ppm active ingredient); 25.0% in series [2] (100 ppm active ingredient); 25.0% in series [2] (200 ppm active ingredient); 36.9% in series [3] (0.4 ppm active ingredient). The “Lesion area ratio (%)” value is given as 20.8% in series [3] (1.6 ppm active ingredient); 3.8% in series [3] (6.3 ppm active ingredient); 4.3% in series [3] (25 ppm active ingredient); 18.3% in series [4] (0.4 ppm active ingredient); 13.7% in series [4] (1.6 ppm active ingredient); 9.3% in series [4] (6.3 ppm active ingredient). Moreover, the Protection value worked out at 71.4 in series [5] (25 ppm active ingredient); 74.3 in series [5] (100 ppm active ingredient); 0.0 in series [1] (100 ppm active ingredient); 0 in series [2] (100 ppm active ingredient); 0 in series [2] (200 ppm active ingredient); 38 in series [3] (0.4 ppm active ingredient). Further, the Protection value was determined as 65 in series [3] (1.6 ppm active ingredient); 94 in series [3] (6.3 ppm active ingredient); 93 in series [3] (25 ppm active ingredient); 74 in series [4] (0.4 ppm active ingredient); 81 in series [4] (1.6 ppm active ingredient); 87 in series [4] (6.3 ppm active ingredient). Further, the “protection effect in combination compared with estimated protective effect (synergy)” value in series [5] (in combination with ferimzone) was “higher protection effect”. The “protection effect in combination compared with estimated protection effect (synergy)” value in series [1] (in combination with azoxystrobin, mepanipyrim and iprodione) is “higher protection effect”; in series [2] (in combination with azoxystrobin), “higher protection effect”; in series [3], “higher protection effect”; in series [4] it was “higher protection effect”.

On to `Cc1ccc(S(=O)(=O)N(c2ccc([N+](=O)[O-])cc2C#N)C(C)C)cc1` [Compound No. 421], for which the “Lesion area ratio (%)” value was 24.7% in series [3] (0.4 ppm active ingredient), 20.0% in series [3] (1.6 ppm active ingredient), 2.3% in series [3] (6.3 ppm active ingredient) and 0.3% in series [3] (25 ppm active ingredient). Moreover, the Protection value was found to be 58 in series [3] (0.4 ppm active ingredient), 66 in series [3] (1.6 ppm active ingredient), 96 in series [3] (6.3 ppm active ingredient) and 99 in series [3] (25 ppm active ingredient). Also, the “protection effect in combination compared with estimated protection effect (synergy)” value in series [3] was “higher protection effect”.

In turn, `CON(c1ccc([N+](=O)[O-])cc1Cl)S(=O)(=O)c1cc(Cl)ccc1Cl` [Compound No. 528, N-Methoxy-4′-nitro-2,2′,5-trichlorobenzenesulfonanilide] yielded a melting point of 136 to 138 °C.

In the case of `C/C(=N/Nc1nc(C)cc(C)n1)c1ccccc1C` [Ferimzone, ferimzone, reference compound], the “Lesion area ratio (%)” value is listed as 1.5% in series [5] (25 ppm active ingredient) and 0.4% in series [5] (100 ppm active ingredient). Besides, the values for the Protection value in series [5] (25 ppm active ingredient) and in series [5] (100 ppm active ingredient) were 91.4 and 98.0, respectively.

On to `CCCCC(O)(Cn1cncn1)c1ccc(Cl)cc1Cl` (stereo not drawn) [Hexaconazole, hexaconazole, reference compound], for which the “Lesion area ratio (%)” value in series [3] (0.4 ppm active ingredient) came out at 70.0%; in series [3] (1.6 ppm active ingredient), 66.7%; in series [3] (6.3 ppm active ingredient), 21.7%. Moreover, the Protection value worked out at 0 in series [3] (0.4 ppm active ingredient), 0 in series [3] (1.6 ppm active ingredient) and 63 in series [3] (6.3 ppm active ingredient).

Turning to `N=C(N)NCCCCCCCCNCCCCCCCCNC(=N)N` [Iminoctadine, iminoctadine, reference compound], the “Lesion area ratio (%)” value amounted to 66.7% in series [4] (0.4 ppm active ingredient), 33.8% in series [4] (1.6 ppm active ingredient) and 35.0% in series [4] (6.3 ppm active ingredient). Besides, the values for the Protection value in series [4] (0.4 ppm active ingredient), in series [4] (1.6 ppm active ingredient) and in series [4] (6.3 ppm active ingredient) were 6, 52 and 51, respectively.

As to `CC(C)NC(=O)N1CC(=O)N(c2cc(Cl)cc(Cl)c2)C1=O` [Iprodione, iprodione], in series [1] (10 ppm active ingredient), the “Lesion area ratio (%)” value came out at 3.7% and the Protection value was 71.3.

`CC#Cc1cc(C)nc(Nc2ccccc2)n1` [Mepanipyrim, mepanipyrim, reference compound]: the “Lesion area ratio (%)” value in series [1] (10 ppm active ingredient) was found to be 6.0%; in series [4] (0.4 ppm active ingredient), 68.3%; in series [4] (1.6 ppm active ingredient) it was 73.3%; in series [4] (6.3 ppm active ingredient), 19.3%. Besides, the Protection value in series [1] (10 ppm active ingredient) amounted to 53.8; in series [4] (0.4 ppm active ingredient), 4; in series [4] (1.6 ppm active ingredient), 0; in series [4] (6.3 ppm active ingredient), 73.
